Entries after “also recorded” stand apart in the source; their conditions may differ.
What was measured:
[1] = cited from earlier work
[2] = test system: Magel2^null mice; test: Magel2-null mouse model of Prader-Willi Syndrome, HFD-induced obesity, CBDA-ME treatment; format: in vivo
Excerpt: A Magel2-null mice model of Prader-Willi Syndrome was used to examine the effects of CBDA-ME treatment.
(§1) The experimental protocol used was approved by the Institutional Animal Care and Use Committee of the Hebrew University, Israel, which is an AAALAC International accredited institute. Male 6-week-old Magel2^null mice and their wild-type littermate controls were maintained under a 12-h light/dark cycle and fed ad libitum. To generate diet-induced obesity, the mice were fed either a high-fat diet (HFD) (60% of calories from fat, 20% from protein, and 20% from carbohydrates; Research Diet, D12492) or a standard laboratory diet (STD, 14% fat, 24% protein, 62% carbohydrates; NIH-31 rodent diet) for 14-16 weeks. Then, HFD-fed obese mice received vehicle (1% Tween80, 4% DMSO, 95% Saline) or CBDA-ME (20 or 40 mg/kg) daily for 28 days by intraperitoneal (ip) injections. Age-matched control mice on STD received vehicle daily.
(§2) Body weight was monitored daily. Total body fat and lean masses were determined by EchoMRI-100H™ (Echo Medical Systems LLC, Houston, TX, USA). At weeks 20-22, the mice were euthanized by a cervical dislocation under deep anesthesia. The brain, kidneys, liver, fat pads, pancreas and muscles were removed, and the liver and kidney were also weighed. The samples were either snap-frozen or fixed in buffered 4% formalin. Trunk blood was collected for determining the biochemical parameters.
(§3) Multi-parameter metabolic assessment—Metabolic profile of the mice was assessed by using the Promethion High-Definition Behavioral Phenotyping System (Sable Instruments, Inc., Las Vegas, NV, USA). Data acquisition and instrument control were performed using MetaScreen software version 2.2.18.0, and the obtained raw data were processed using ExpeData version 1.8.4 using an analysis script detailing all aspects of data transformation. Mice with free access to food and water (which were continuously measured) were subjected to a standard 12 h light/12 h dark cycle, which consisted of a 24 h acclimation period followed by 24 h of sampling. Respiratory gases were measured by using the GA-3 gas analyzer (Sable Systems, Inc., Las Vegas, NV, USA) using a pull-mode, negative-pressure system. Air flow was measured and controlled by FR-8 (Sable Systems, Inc., Las Vegas, NV, USA), with a set flow rate of 2000 mL/min. Water vapor was continuously measured and its dilution effect on O2 and CO2 was mathematically compensated. Effective body mass was calculated by ANCOVA. Fat oxidation (FO) and carbohydrate oxidation (CHO) were calculated as FO=1.69×VO2−1.69×VCO2 and CHO=4.57×VCO2−3.23×VO2 and expressed as g/d/kg^eff.Mass. […]
(§4) Statistical Methods—Results in multiple groups and time-dependent variables were compared by ANOVA followed by Tukey post-hoc test. Significance was set at P<0.05 using the following signs: *P<0.05 relative to STD-Veh; #P<0.05 relative to HFD-Veh; ^P<0.05 relative to HFD-20 mg/kg of CBDA-ME.
(§5) The metabolic profile of CBDA-ME was examined in mice with diet-and genetic-induced obesity (DIO, GIO). Male Magel2^null mice and their wild-type littermate controls fed a high-fat diet (HFD) for 14-16 weeks became obese and then started treatment with daily ip injections of vehicle, or CBDA-ME (20 mg/kg/d or 40 mg/kg/d) for 28 days. Age-and sex-matched mice on STD served as controls.

[3] = test system: WT mice; test: Wild-type littermate controls with HFD diet-induced obesity, CBDA-ME treatment; format: in vivo
Excerpt: as §1, §2, §3
Glucose tolerance test (ipGTT) and insulin tolerance test (ipITT)-Mice that fasted overnight were injected with glucose (1.5 g/kg, ip), followed by a tail blood collection at 0, 15, 30, 45, 60, 90, and 120 minutes. Blood glucose levels were determined using the Contour glucometer (Bayer, Pittsburgh, PA). The following day, mice underwent fasting for 6 h before receiving insulin (0.75 U/kg, ip; Eli Lilly), and blood glucose levels were determined at the same intervals as above. […]
as §4, §5

[4] = test system: DIO mice; test: Serum biochemistry and hepatic lipid content in HFD-fed obese mice, genotype not distinguished (WT or PWS model); format: in vivo
Excerpt: as §1
Blood biochemistry—Serum levels of cholesterol, triglycerides (TG), high-density lipoprotein (HDL), low-density lipoprotein (LDL), glucose, alanine aminotransferase (ALT), aspartate aminotransferase (AST), and alkaline phosphatase (ALP) were determined using the Cobas C-111 chemistry analyzer (Roche, Switzerland). Fasting blood glucose was measured using the Contour glucometer.
Hepatic lipid content—Liver tissues were extracted and their triglyceride and cholesterol contents were determined using the Cobas C-111 chemistry analyzer (Roche, Switzerland) or the EnzyChrom™ Triglyceride assay kit (BioAssay Systems, Hayward CA, USA).
Histopathology—First, 5 μm paraffin-embedded liver sections from 5 animals per group were stained with hematoxylin-eosin staining. Liver images were captured with a Zeiss AxioCam ICc5 color camera (Carl Zeiss AG, Jena, Germany) mounted on a Zeiss Axio Scope.A1 light microscope (Carl Zeiss AG, Jena, Germany) and taken from 10 random 40× fields of each animal.
as §4

[5] = test system: Magel2^null mice; test: PWS preventive model: Magel2-null mice on standard diet treated for 18 weeks; format: in vivo; settings: STD diet, 20 mg/kg/day IP
Description: The aim of the second study was to evaluate whether EPM301 treatment has an impact on body weight gain and adiposity in a mouse model of PWS.
Male 6-week-old Magel2^null mice and their wild-type littermate controls were maintained under a 12-h light/dark cycle and fed ad libitum a standard laboratory diet (STD, 14% fat, 24% protein, 62% carbohydrates; NIH-31 rodent diet).
Magel2^null mice were either treated with EPM301 20 mg/kg/day or with vehicle (1% Tween80, 4% DMSO, 95% Saline). WT siblings were treated with vehicle. All treatments were given for 18 weeks by intraperitoneal (IP) injections.

[6] = test system: rats; settings: compared with CBDA, 5-HT1A receptor-dependent; cited from earlier work
[7] = test system: rats; settings: compared with CBDA, 5-HT1A receptor-dependent; cited from earlier work; remark: listed apart in the source
[8] = test system: rat models; settings: oral ingestion, 1 mg/kg, two rat models; cited from earlier work
[9] = HFD-fed obese, 20 or 40 mg/kg/d ip, 28 days
[10] = 20 or 40 mg/kg ip, 28 days, more prominent at the higher dose

Q: For C=C(C)[C@@H]1CCC(C)=C[C@H]1c1c(O)cc(CCCCC)c(C(=O)O)c1O [CBDA, cannabidiolic acid], which “stability (decarboxylation into CBD enhanced by heat)” value [1] is on record?
A: The value was “relative instability”.

Q: With C=C(C)C1CCC(C)=C[C@H]1c1c(O)cc(CCCCC)c(C(=O)OC)c1O (some centres unmarked) [CBDA-ME, cannabidiolic acid methyl ester] as the compound, how does the “food intake and hyperphagia” value ([2]; HFD) read?
A: The value was “inhibit; also recorded: significantly reduced”.

Q: What about the reduced ambulatory activity ([2]; HFD) of the same compound?
A: The reduced ambulatory activity was “restored”.

Q: What about the increased adiposity [2, 9] of the same compound?
A: Its increased adiposity is “reduced by CBDA-ME in both doses”.

Q: What about the “overweight (body weight)” value [2, 9] of the same compound?
A: The value was “reduced by CBDA-ME in both doses; also recorded: significantly reduced; also recorded: effectively reduced”.

Q: And the “insulin sensitivity (ipITT)” value ([2]; HFD, 40 mg/kg)?
A: The value was “slightly improved”.

Q: What about the “obesity-induced glucose intolerance (ipGTT)” value ([2]; HFD, 20 or 40 mg/kg) of the same compound?
A: Its value is “found effective in Magel2^null mice in both doses tested”.

Q: And the “fasting blood glucose levels” value ([2]; HFD, chronic treatment)?
A: The value was “reduced”.

Q: What about the carbohydrate oxidation ([2]; HFD, indirect calorimetry) of the same compound?
A: Its carbohydrate oxidation is “downregulating”.

Q: What about the fat oxidation ([2]; HFD, indirect calorimetry) of the same compound?
A: Its fat oxidation is “further upregulating”.

Q: And the “food intake and hyperphagia” value ([3]; HFD)?
A: Its value is “not observed”.

Q: And the reduced ambulatory activity ([3]; HFD)?
A: Its reduced ambulatory activity is “restored”.

Q: What about the increased adiposity [3, 9] of the same compound?
A: The increased adiposity was “only observed in the higher dose of 40 mg/kg”.

Q: And the “overweight (body weight)” value [3, 9]?
A: The value was “only observed in the higher dose of 40 mg/kg; also recorded: only the higher dose was found effective”.

Q: What about the “insulin sensitivity (ipITT)” value ([3]; HFD, 40 mg/kg) of the same compound?
A: Its value is “slightly improved”.

Q: What about the “obesity-induced glucose intolerance (ipGTT)” value ([3]; HFD, 40 mg/kg) of the same compound?
A: The value was “this effect was observed”.

Q: And the “lean body mass percentage” value ([3]; HFD, 40 mg/kg ip, 28 days)?
A: Its value is “significant increase”.

Q: What about the “fasting blood glucose levels” value ([3]; HFD, chronic treatment) of the same compound?
A: Its value is “only in Magel2^null mice”.

Q: What about the carbohydrate oxidation ([3]; HFD, indirect calorimetry) of the same compound?
A: The carbohydrate oxidation was “upregulated”.

Q: What about the “utilization of fat (fat oxidation)” value ([3]; HFD, indirect calorimetry) of the same compound?
A: The value was “downregulated”.

Q: And the parameters measured overall ([3]; WT DIO mice, 40 mg/kg)?
A: The parameters measured overall was “improvements in almost all parameters measured”.

Q: And the “obesity related hepatocellular injury: serum ALT” value ([4]; 40 mg/kg)?
A: The value was “reduction”.

Q: What about the “obesity related hepatocellular injury: serum AST” value ([4]; 40 mg/kg) of the same compound?
A: Its value is “reduction”.

Q: What about the “serum HDL” value ([4]; 20 or 40 mg/kg ip, 28 days) of the same compound?
A: Its value is “no effect”.

Q: What about the “HFD-induced hypercholesterolemia (serum cholesterol)” value [4, 10] of the same compound?
A: Its value is “reduced”.

Q: And the “ratio between HDL-to-LDL” value [4, 10]?
A: Its value is “increased”.

Q: What about the “serum LDL” value [4, 10] of the same compound?
A: The value was “reduced”.

Q: And the ALP levels ([4]; HFD)?
A: The ALP levels was “No major changes”.

Q: What about the “HFD-induced hepatic steatosis (hepatic triglyceride and cholesterol levels, fat vacuoles in the liver)” value ([4]; HFD) of the same compound?
A: The value was “attenuated”.

Q: And the “change in the body weight versus WT controls and vehicle-treated Magel2^null mice” value [5]?
A: The value was “significantly lower”.

Q: What about the “fat mass versus WT control mice” value [5] of the same compound?
A: Its value is “similar”.

Q: And the “lean mass versus WT control mice” value [5]?
A: Its value is “similar”.

Q: What about the “fat mass versus vehicle-treated Magel2^null mice” value ([5]; listed as EPM301, 20 mg/kg/day) of the same compound?
A: The value was “lower fat mass; also recorded: prevented”.

Q: What about the “lean mass versus vehicle-treated Magel2^null mice” value ([5]; listed as EPM301, 20 mg/kg/day) of the same compound?
A: The value was “significantly higher; also recorded: increased lean mass”.

Q: And the “weight gain versus vehicle-treated Magel2^null mice” value ([5]; listed as EPM301, 20 mg/kg/day)?
A: Its value is “lower; also recorded: prevented weight gain”.

Q: And the “suppressing signs of acute and anticipatory nausea” value [6]?
A: The value was “greater potency than CBDA”.

Q: And the “suppressing signs of stress-induced anxiety” value [7]?
A: Its value is “greater potency than CBDA”.

Q: And the anti-depressant effect [8]?
A: The anti-depressant effect was “potent anti-depressant effect”.

Source: patent US20240316073A1, “CANNABIDIOLIC ACID ESTERS FOR TREATING PRADER-WILLI SYNDROME” (EPM (IP), Inc., priority 2021, published 2024)
